Where “and” joins values, the source holds several entries; their conditions need not be identical. Identical values can stand only once. Marks after values point to notes of the source that are not given here.

A short description of series [1]: Storage stability of the precursor at 25° C. under 0, 60 and 100% RH (EF release after storage). It is filed as physicochemical. Here is the method: The stability of the precursor was studied over a period of 30 days. The precursor was stored at 25° C. under 0, 60, and 100% RH. An environmental chamber (MLR-350H, Sanyo Electric Co., Ltd. Japan) was used to control the humidity levels and temperature. Samples from each condition were tested for EF release at 1, 15, and 30th day at 25° C. using 0.1 N citric acid solution as described above.

Series [2] relates to spotted-wing Drosophila (SWD) adults. Put plainly: Mortality of adult SWD on blueberries exposed to EF vapor released from the precursor. The series is classed as in vivo. Here is the method:
The EF precursor from Example 1 was activated using an acid-dispersed substrate (acidified substrate prepared in Example 1) and the moisture generated from fruit respiration to release EF vapor. In a model system utilized spotted-wing Drosophila (SWD), an invasive insect pest of many fruit crops, as the surrogate test organism. The mortality of adult SWD on blueberries was evaluated when they were exposed to the EF vapor released from the precursor. Different amounts of the EF precursor (2.5, 5.0, and 7.5 mg) were activated using the citric acid-dispersed substrate to release 1, 2, and 3 mg of EF, respectively, in a sealed 1 L glass jar containing 0, 20 or 40 g of blueberries and 10 adult SWD.

A short description of series [3]: EF release from the precursor activated with 0.1 N citric acid solution, headspace GC analysis. To be noted: for EF released: after 120 min. It is filed as physicochemical. As for the experimental part:
(§1) The cumulative release of EF from the precursor was determined using an automatic headspace analysis system (FIG. 1). The system comprising of an environmental chamber (MLR-350H, Sanyo Electric Co., Ltd. Japan), a gas chromatograph (GC 6890, Agilent Technologies Inc., Santa Clara, CA, USA) equipped with a flame ionization detector (FID), stream selection valves (EMTCA-CE, VICI Valco Inst., Houston, TX, USA), 1/16 stainless steel tubing, and a control board (SRI Instruments Inc., Las Vegas, Nev., USA). The capillary column used with the GC was Agilent J&W DB-624 (Agilent Technologies Inc., Santa Clara, CA, USA) with 30 m length, 0.53 mm I.D, and 3 μm film thickness. The temperature of the detector and the oven were 200° C. and 40° C., respectively. The flow rates of N2, H2, and O2 were 30, 50, and 200 mL/min, respectively. The calibration curve was prepared by measuring standard headspace concentration of a known amount of EF. Chromatograms were analyzed using the Peak Simple software (393-32 bit, SRI Instruments, CA, USA). At any given sampling point, the total amount of EF released into the headspace (Mt, μL) was determined according to Eqs. 5 to 7 by the addition of the recorded amount (Mr, μL) and the accumulated loss (Ml, μL) of all the previous sampling points up to that point.
To activate the release of EF, two approaches were evaluated. In the first approach, 1-2 mg of the precursor was placed in a 10 mL, glass beaker inside a hermetically sealed 1 L, glass jar as shown in FIG. 1. The headspace gas was extracted through a septum attached to the jar lid at predetermined time intervals. EF release was triggered by distributing 1 mL of 0.1 N citric acid on the precursor particles using a pipette (Fisher Scientific, Ottawa, ON, Canada) just before closing the jar and attaching it to the sampling needle. The release of EF from the precursor was studied at 5, 15, and 25° C.
(§2) The release kinetics of EF from its precursor were modeled using an empirical pseudo-first order reaction kinetic model:
(§3) [formula] where Ce is the concentration of EF in the headspace of the 1 L test jar at an infinite time; C is the EF released at time, t; C0 is the EF initial concentration (which was equal to zero in our case); and k is the release rate constants. Non-linear regression analyses were conducted to fit the release data and determine the model parameters. Results and Discussion Ethyl Formate Precursor Formation

The nature of series [4]: EF release from the precursor on citric acid-acidified nonwoven substrate at different RH, headspace GC analysis. The series is classed as physicochemical. The following applies: 25° C.; for Ce / k: fitted model. As for the experimental part:
as §1
In the second study, the release of EF was evaluated using an acidified substrate which was prepared by impregnating 0.3 mL of 5% (w/v) citric acid/anhydrous ethanol solution into a 3×3 cm spun-bound polypropylene nonwoven, followed by drying it overnight at 40° C. The precursor (1-2 mg) was then spreaded on the top of the acidified nonwoven layer and exposed to the test relative humidity maintained in a hermetically 1 L glass jar using silica gel (0% RH) or saturated salt solutions (magnesium nitrate, 53% RH; sodium chloride, 75% RH; potassium nitrate, 94% RH) (FIG. 1) (ASTM Standard E104-02 2012; Greenspan, 1977). EF release, expressed in milligram of EF per milligram of precursor per litre of headspace air, was determined using the headspace analysis system described above.
as §2, §3

Series [5] can be described thus: Dispersion of precursor particulates in water. It is filed as physicochemical. To be noted: 5 h of stirring.
Series [6] relates to adult weevils. The following applies: 50-55 g/m^3 headspace concentration at 4-8° C. for 24 h, apple; cited from earlier work.
For series [7], the system named is test insects in the wheat, split faba beans and sorghum bins. To be noted: 85 g/t for 4 h followed by second 85 g/t treatment, unsealed metal bins; cited from earlier work.
For series [8], the system named is Rhizopus stolonifer, Colletotrichum musae, Erwinia carotovora, and Pseudomonas aeruginosa. The following applies: EF vapor, agar medium; cited from earlier work.
Series [9] deals with Penicillium digitatum. To be noted: EF vapor 6.5-11.5 mmol/dish, agar medium; cited from earlier work.
The test system of series [10] is Saccharomyces rouxii and Saccharomyces mellis. To be noted: EF at 3 mL/lb on Deglet Noor dates; cited from earlier work.
[11] abbreviates: 25 °C, fitted pseudo-first order model, listed as A.
Setting [12] is: 25 °C, fitted pseudo-first order model, listed as B.

The term mortality denotes the share of the test organisms that died. In the case of `CCOC=NNC(=O)CCCCC(=O)NN=COCC` [EF precursor, diethyl N,N′-adipoyldiformohydrazonate], the “changes in the amount of EF released after storage” value in series [1] (stored at 0% RH, days 1, 15 and 30) was “no significant (p>0.05) changes”. The “reduction in EF release” value is 18% in series [1] (stored at 60% RH, after 15 days); 45% in [1] (stored at 60% RH, after 30 days); 62% in series [1] (stored at 100% RH, 15 days); 81% in series [1] (stored at 100% RH, 30 days). Also, the mortality in series [2] (after 2 h, 1 mg EF (2.5 mg precursor), 1 L jar with 40 g of blueberries) is on record as 63%; in series [2] (after 2 h, 1 mg EF, jars without blueberries), 16%; in series [2] (after 2 h, 3 mg EF (7.5 mg precursor), 1 L jar with 40 g of blueberries) it was 96%; in series [2] (after 2 h, 3 mg EF, jars without blueberries), 60%; in [2] (at 4 h, all the concentrations), 100%.
For `CCOC=NNC(=O)CCCCC(=O)NN=COCC` [Precursor A, diethyl N,N′-adipoyldiformohydrazonate], the EF released in series [3] (25 °C, listed as A) was 89.0 ± 1.5%. Moreover, in [3] (setting [11]), the Ce is 0.350 ± 0.005^a mg/mg · L and the k is given as 0.037 ± 0.000^a min^−1.
Regarding `CCOC=NNC(=O)CCCCC(=O)NN=COCC` [Precursor B, diethyl N,N′-adipoyldiformohydrazonate], the Ce was 0.792 ± 0.004^c mg/mg · L in series [3] (5 °C, fitted model); 0.456 ± 0.014^a, b mg/mg · L in series [3] (15 °C, fitted model); 0.389 ± 0.007^a, b mg/mg · L in [3] (setting [12]); 0.072 ± 0.013^c mg/mg · L in series [4] (53% RH); 0.200 ± 0.037^b mg/mg · L in series [4] (75% RH); 0.333 ± 0.019^a mg/mg · L in [4] (94% RH). Further, the k is recorded as 0.004 ± 0.001^d min^−1 in series [3] (5 °C, fitted model); 0.010 ± 0.000^c min^−1 in series [3] (15 °C, fitted model); 0.030 ± 0.001^b min^−1 in series [3] (setting [12]); 0.006 ± 0.001^b min^−1 in series [4] (53% RH); 0.024 ± 0.004^a min^−1 in [4] (75% RH); 0.026 ± 0.002^a min^−1 in series [4] (94% RH). Besides, the EF released was 97.9 ± 2.0% in series [3] (25 °C, listed as B); 0.38±0.002 mg/mg · L and 0.382 ± 0.008^a mg/mg · L in [3] (25 °C, mg EF per mg precursor per L headspace). In addition, the EF release result in series [4] (0% RH, acid-dispersed substrate) is “no release was observed”. Also, the “dispersibility of precursor particulates in water” value in series [5] is listed as “agglomerates presisted even after 5 h of stirring”.
As to ethyl formate [EF], the mortality in series [6] is 100%. Further, in series [7], the insect control result is on record as “high level of control”. Moreover, the germicidal concentration in [8] was 6.5-11.5 mmol/dish. Moreover, in series [9], the growth inhibition entry is listed as “did not show complete inhibit”. In series [10], the microbial growth inhibition result is recorded as “able to inhibit the microbial growth”.

The values above are taken from patent publication US12655092B2, “Precursor compounds of ester compounds” (University of Guelph, priority 2019, dated 2026).
